Experiments:
[1] = system: Gbe^ys/ys mice; assay: Blood metabolic panel in Gbe^ys/ys mice; type: in vivo
Procedure: FIGS. 3A-3I include a graph of the effect of Compound 1 on in vivo metabolism; mice were monitored by the Promethion High-Definition Behavioral Phenotyping System (Sable Instruments, Inc.) over a 24 hr period. Effective mass was calculated by power of 0.75. Data are mean±SEM from n=11 9 months old mice in the wt. control vehicle arm, n=6 9 months old mice in the GBE^ys/ys vehicle arm and n=7 9 months old mice in the Gbe^ys/ys 144DG11 (Compound 1)-treated arm. All injections were from the age of 4 months. […] Blood metabolic panel based on n=5, 9.5 months old mice treated as indicated (3I). Blood glucose was increased, and blood triglycerides decreased in Gbe^ys/ys […] by Compound 1 (p<0.05, Student's t-tests). *p<0.05 v wt. controls, #p<0.05 v GBE^ys/ys vehicle treated mice;
The inventors further tested whether Compound 1 is able to correct the hypoglycemia and hyperlipidemia observed in Gbe^ys/ys mice. Such an effect is expected from an agent capable of inducing the catabolism of liver glycogen with an ensuing rise in blood glucose. […] Muscle (creatine kinase) and liver (alanine transferase) functions were not affected by this treatment (FIG. 3I).

[2] = Safety assessment in wild type mice, 3 months; type: in vivo
Procedure: FIG. 10 includes a graph of the body weights of wild type C57B16J mice treated with Compound 1 for 3 months. Mice were injected twice a week with 150 μL of Compound 1 at 250 mg/kg in 5% DMSO, or an equal volume of 5% DMSO (V, vehicle) control. Injections were intravenous for the first month and then subcutaneously for the following 2 months;
FIG. 11 includes images of brain, liver, skeletal muscle, and heart tissue slices of wild type C57B16J mice treated for 3 months with Compound 1. The slices were stained by H&E staining in order to visualize lesions. No lesions were apparent in either treatment. Scale bars, 500 μm (brain), 100 μm (liver), 200 µm (muscle), 100 μm (heart).
The inventors have tested Compound 1 (FIG. 1A) for its capacity to correct the deficient motor phenotypes and short lifespan in the APBD mouse model Gbe^ys/ys. Compound 1 is one of 19 PG reducing HTS hits previously discovered by the inventors. It was selected by in silico ADMET (Absorption, Distribution, Metabolism, Excretion, and Toxicity) tests run on these hits to predict which of them should be safe and pharmacokinetically and pharmacodynamically preferred and is therefore worth further pursuit (FIG. 8, compound “A”). […] Following 1 h and 24 h treatments, mice were also examined for abnormal spontaneous behavior, such as immobility, excessive running, stereotyped movements, and abnormal posture (Irwin tests).

[3] = target: T1, LAMP1 (Homo sapiens, UniProt P11279); assay: Cellular thermal shift assay (CETSA); type: binding
T1 construct: endogenous in cells
T1 sequence (P11279 29-417): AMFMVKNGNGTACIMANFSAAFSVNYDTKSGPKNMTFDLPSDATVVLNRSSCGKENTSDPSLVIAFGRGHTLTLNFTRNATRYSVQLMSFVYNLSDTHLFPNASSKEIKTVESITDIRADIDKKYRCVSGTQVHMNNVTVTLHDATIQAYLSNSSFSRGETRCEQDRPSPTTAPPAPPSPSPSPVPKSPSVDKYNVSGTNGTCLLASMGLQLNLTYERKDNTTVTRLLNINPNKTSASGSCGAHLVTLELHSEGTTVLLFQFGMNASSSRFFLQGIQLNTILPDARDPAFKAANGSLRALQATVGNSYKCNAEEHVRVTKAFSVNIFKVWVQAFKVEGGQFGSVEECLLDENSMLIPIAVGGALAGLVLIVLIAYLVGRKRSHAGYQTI
From the text: FIGS. 5A-5E include images of experiments showing hetero-assembly forms around Compound 1 and not around endogenous molecules as shown by the liquid crystals formed in experiments 1-3 (5A); image of STRING network of targets at the interactome of Compound 1 (5B); cellular thermal shift assay (CETSA) of different targets of the Compound 1 hetero-assembly (5C); surface plasmon resonance sensograms of binding of Compound 1 to LAMP1 (5D); sensogram experiments consisting of association and dissociation at the indicated concentration ranges and pH values were then conducted.
The inventors have investigated the mechanism of action of 144DG11. To that end, the inventors first decided to determine its molecular target. Nematic protein organization technique (NPOT, Inoviem, Ltd.) was applied to homogenates of APBD patient fibroblasts. The NPOT analysis has discovered protein hetero assemblies uniquely generated around 144DG11 only when it was added to the cell homogenates (FIG. 5A). The next step in this analysis has identified the interactome of protein targets interacting with 144DG11 in APBD patients' fibroblasts. […] In the search for a putative binding site for Compound 1 in LAMP1, the inventors have analyzed the N- and C-terminal subdomains of its luminal domain (residues A29-R195 and S217-D378, respectively), which have a similar topology. […]

Compound: COCCN(Cc1sccc1C)C(=O)c1cc(C)nc(O)c1 [Compound 1]
- hypoglycemia and hyperlipidemia ([1]; 9.5 months old mice): corrected to control levels
- muscle (creatine kinase) and liver (alanine transferase) functions ([1]; 9.5 months old mice): not affected
- blood glucose ([1]; 9.5 months old, p<0.05): increased
- blood triglycerides ([1]; 9.5 months old, p<0.05): decreased
- animals' weight gain over time ([2]; 3 months at 250 mg/kg in 5% DMSO): did not influence
- histopathological damage or lesions in brain, liver, skeletal muscle, and heart ([2]; after 3 months exposure): did not produce any histopathological damage or lesions
- increase in LAMP1 levels [3]: 1.2 fold
- interaction with LAMP1 (not other protein targets; 6 of 8 NPOT targets tested) [3]: directly interacts
